Experimental data published in PMC11666850, “Development and evaluation of deuterated [^18F]JHU94620 isotopologues for the non-invasive assessment of the cannabinoid type 2 receptor in brain” (EJNMMI Radiopharmacy and Chemistry, 2024).

Legend:
hCB2R(D80N) = hCB2R(D80N) (Homo sapiens, UniProt P34972, D80N); assay: Homologous displacement autoradiography, brain cryosections of rats with hCB2R(D80N) overexpression; assay type: binding
CB2R = target: T1, CB2R (Mus musculus, UniProt P47936); assay: Quantitative autoradiography, mouse spleen cryosections; assay type: binding
T1 construct: from tissue; host or cells: mouse spleen cryosections
T1 sequence (P47936 whole entry): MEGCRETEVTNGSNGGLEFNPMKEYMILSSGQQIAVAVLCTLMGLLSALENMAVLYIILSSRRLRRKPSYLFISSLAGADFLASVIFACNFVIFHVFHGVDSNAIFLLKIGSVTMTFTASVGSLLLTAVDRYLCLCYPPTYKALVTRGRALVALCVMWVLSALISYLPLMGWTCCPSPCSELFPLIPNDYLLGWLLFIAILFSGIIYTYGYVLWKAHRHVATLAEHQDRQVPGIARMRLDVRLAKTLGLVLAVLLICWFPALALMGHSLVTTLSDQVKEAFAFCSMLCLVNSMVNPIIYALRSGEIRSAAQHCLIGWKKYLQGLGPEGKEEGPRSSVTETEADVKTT
Procedure: For quantitative autoradiography in different species, 10 µm cryosections from mouse, rat and piglet spleen were thawed, dried, and pre-incubated with incubation buffer for 10 min, dried under an airstream. Subsequently, the incubation buffer containing [^18F]JHU94620-d8 (59–137 GBq µmol^−1, 1.7–3.6 nM) was added alone or together with indicated concentrations of the reference compound. Additionally, to assess the non-specific binding of [^18F]JHU94620-d8 to cryosections GW405833 was added instead of the reference compound. After 90 min, cryosections were washed two times for 2 min with ice-cold 50 mM Tris HCl, pH7.4 and 10 s in ddH2O and subsequently dried under an airstream. For the calculation of the radioactivity concentration, 5 µl of five serial 1:2 dilutions of the incubation buffer with [^18F]JHU94620-d8 were air-dried on a microscopic slide. For binding studies in rat spleen cryosections by autoradiography with HLM-derived radiometabolites of [^18F]JHU94620-d8 obtained from the radiometabolite assay, the samples were added to the incubation buffer to a final activity concentration of 0.2 MBq mL^−1 and protocol was followed as described above. Subsequently, the slides were exposed to a phosphor imager plate. After scanning at high sensitivity and a 12.5 µm resolution with a CR35 Bio image plate scanner (Raytest Isotopenmessgeräte GmbH, Straubenhardt, Germany). The analyses of the autoradiographic images were performed with the AIDA 5.1 software (Elysia-Raytest, Angleur, Belgium) resulting in a resolution of 12.617 pixel × 12.616 pixel per µm^2 (1 voxel = 1592 µm^3 ≙ 1.59 10^–3 µg wet tissue) and inhibition curves were created with GraphPad Prism 9.5.1 (GraphPad Inc., La Jolla, CA). […]

in vitro = in vitro ADME; settings: microsomes, pH 7.4
Procedure: For microsomal incubations liver microsomes from human (HLM, 50 donors, 20 mg/mL) and rat (RLM, Sprague Dawley, 20 mg/mL) were purchased from Thermo Fisher Scientific GmbH (Dreieich, Germany). Testosterone and β-nicotinamide adenine dinucleotide 2′-phosphate reduced tetrasodium salt (NADPH) were purchased from Sigma-Aldrich (Merck KGaA, Darmstadt, Germany) and Dulbecco’s PBS (DPBS) (without Ca^2+ and Mg^2+) was purchased from Biochrom GmbH (Berlin, Germany). Analyses of samples for comparison of radiometabolite patterns were performed by radio-HPLC using method B, for determination of time dependency of the metabolic depletion using method C.
The final concentrations are given in brackets. […] The mixtures were vortexed and shaken gently at 37 °C using the BioShake iQ (QUANTIFOIL Instruments, Jena, Germany) for 5, 10, 15, 30, 45, and 60 min (for HLM) or 15, 30, 45, and 60 min (for RLM). […] The supernatants were separated and analyzed by radio-HPLC to determine the fractions of unchanged [^18F]JHU94620-d8. Efficiencies of extracted activity were determined as described in “Quantification of radiometabolites”. […]
To determine the metabolic stability in HLM and RLM, both the natural logarithm of the determined unchanged percentage of [^18F]JHU94620-d8 was plotted versus incubation time, which allowed the calculation of the in vitro half-lives as described previously (Chai et al. [2022]).

Sequence of hCB2R(D80N) (P34972 whole entry D80N): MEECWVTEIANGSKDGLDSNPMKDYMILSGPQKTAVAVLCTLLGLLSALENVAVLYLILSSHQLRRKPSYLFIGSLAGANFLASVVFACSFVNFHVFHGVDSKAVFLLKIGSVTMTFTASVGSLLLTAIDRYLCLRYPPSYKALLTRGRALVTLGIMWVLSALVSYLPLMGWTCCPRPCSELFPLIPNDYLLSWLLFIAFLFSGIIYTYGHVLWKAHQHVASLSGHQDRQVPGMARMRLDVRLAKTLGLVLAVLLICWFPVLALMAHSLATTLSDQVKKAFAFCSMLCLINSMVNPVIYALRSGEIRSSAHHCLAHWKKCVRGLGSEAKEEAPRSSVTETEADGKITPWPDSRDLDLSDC

[2H]C([2H])([18F])C([2H])([2H])C([2H])([2H])C([2H])([2H])n1c(C)c(C)s/c1=N\C(=O)C1C(C)(C)C1(C)C [[^18F]JHU94620-d8]
Kd (hCB2R(D80N)): 41 nM | Kd (CB2R): 1.98 nM | specific binding to CB2R (CB2R; mouse spleen cryosections, blocking with 10 µM GW405833 or self-blocking): 40 ± 18% | Bmax (CB2R; spleen of mice): 0.08 pmol mg^−1 protein | half-life (in vitro; Sprague Dawley, rat): 10.8 ± 2.4 min | half-life (in vitro; human): 2.1 ± 0.7 min
